Assay results as given in PMC7576608, “Mechanisms of telomerase inhibition by oxidized and therapeutic dNTPs” (Nature Communications, 2020).
Where “and” joins values, the source holds several entries; their conditions need not be identical. Equal values may be shown once.

Target: telomerase (Homo sapiens, UniProt O14746)
Experiment: Direct telomerase assay in the absence or presence of POT1-TPP1 (processivity R1/2)
Assay type: biochemical
Parameters: made in house; POT1: baculovirus-infected Sf9; TPP1-N: E. coli BL21(DE3) pLysS
Settings: analog substituted for its natural dNTP, other dNTPs at cellular concentration
Excerpt: Next we tested whether the telomerase processivity factor POT1–TPP1 modulates modified dNTP inhibition of telomerase. POT1 binds to the telomeric ssDNA overhang, requiring the minimum sequence of 5′-[…]-3′[38]. Inclusion of POT1-binding partner TPP1, increases the binding affinity for telomeric DNA ten-fold compared to POT1 alone. POT1–TPP1 recruits telomerase to telomeres in vivo[39], and greatly increases telomerase repeat processivity. Therefore, we reasoned that POT1–TPP1 may overcome inhibition by the modified dNTPs and enhance telomerase processivity. We conducted telomerase extension reactions with radiolabeled primer in the presence of POT1–TPP1, and used a primer with a single mutation ([…]; underlined G to C mutation)[40] to ensure POT1–TPP1 is positioned at the 5′ portion of the primer (Fig. 5). This provides a homogenous substrate for telomerase extension.
For these reactions, we replaced the natural dNTP with the modified dNTP analog, while the other dNTPs remained at cellular relevant concentrations.
Direct telomerase assays were conducted in the absence or presence of 500 nM POT1 and 500 nM TPP1, as indicated, and 5 nM ^32P-end labeled primer ([…]) designed to position POT1 at the 10 nt primer 5′ end. Reactions contained cellular-concentration dNTPs (lanes 1 and 2), except when the natural dNTP was substituted with the oxidized dNTP a or therapeutic dNTP b analog (lanes 3–8), as indicated. […] Letters on the right indicate template base; P indicates unextended 18-mer primer. c Processivity was calculated on the basis of total products normalized to loading control. Images are representative of, and data are shown as mean ± s.d. from 3 to 5 independent experiments. Source data are provided as a Source Data file.
The reactions were started by the addition of 3 μl of immunopurified telomerase eluent, incubated at 37 °C for 1 h, then terminated with 2 μl of […] and heat inactivated at 65 °C for 20 min. An equal volume of loading buffer (94% formamide, 0.1× TBE, 0.1% bromophenol blue, 0.1% xylene cyanol) was added to the reaction eluent. The samples were heat denatured for 10 min at 100 °C and loaded onto a 14% denaturing acrylamide gel (7 M urea, 1× TBE) and electrophoresed for 90 min at constant 38 W. Samples were imaged using a Typhoon phosphorimager (GE Healthcare). Percent primer extension was calculated with ImageQuant TL 8.2 by measuring the intensity of each product band and dividing by the total radioactivity in the lane or total products, as indicated in the figure legends.
The processivity was calculated as described[40],[67]. Repeat processivity from the direct telomerase extension assays was calculated as R1/2 (equivalent to the half-time for decay in an exponential time course), which represents the median length of DNA product formed, expressed in terms of number of telomere repeats. First, the total volume counts for each product band extend by one or more telomere repeats were obtained using Image Quant TL. The volume counts were then normalized by dividing by the number of radiolabeled guanosines incorporated into the extended products based on the number of repeats added, termed corrected volume (corr vol). The “percent left behind” (%LB) was calculated for each product band by summing the counts for that product band and for every product band below (shorter products), divided by the total counts for the lane, and then multiplied by 100. The natural log of (100−%LB) was calculated and then plotted vs. repeat number for each product length. A linear regression line was fit to the data to determine the slope of the line.

[1] = 500 nM POT1 and 500 nM TPP1, Mean
[2] = 500 nM POT1 and 500 nM TPP1, n1-n3

Row | Structure (SMILES) | Processivity R 1/2 [1] | Processivity R 1/2 (500 nM POT1 and 500 nM TPP1, Mean, listed as 2dA) | Processivity R 1/2 (500 nM POT1 and 500 nM TPP1, n1-n3, listed as 2dA) | Processivity R 1/2 (Control (no POT1-TPP1), Mean) | Processivity R 1/2 (Control (no POT1-TPP1), Mean, listed as 2dA) | Processivity R 1/2 (Control (no POT1-TPP1), n1-n3, listed as 2dA) | Processivity R 1/2 [2] | Processivity R 1/2 (Control (no POT1-TPP1), n1-n3) | Processivity R 1/2 (500 nM POT1 and 500 nM TPP1, n1-n3, listed as 8dA)
1 | Nc1nc(O)nc2c1ncn2C1CC(O)C(COP(=O)(O)OP(=O)(O)OP(=O)(O)O)O1 (centres unmarked) [2-OH-dATP] | 2.3 | 2.27 | 2.20 and 2.10 and 2.50 | 0.5 | 0.49 | 0.49 and 0.48 and 0.51 |  |  | 
2 | Nc1nc2c(ncn2C2CC(O)C(COP(=O)(O)OP(=O)(O)OP(=O)(O)O)O2)c(=S)[nH]1 (centres unmarked) [6-thio-dGTP] | 0.00 |  |  | 0.00 |  |  | 0.00 | 0.00 | 
3 | Nc1ncnc2c1[nH]c(=O)n2C1CC(O)C(COP(=O)(O)OP(=O)(O)OP(=O)(O)O)O1 (centres unmarked) [8-oxo-dATP] | 1.31 |  |  | 0.00 |  |  |  | 0.00 | 1.15 and 1.30 and 1.47
4 | Nc1nc2c([nH]c(=O)n2C2CC(O)C(COP(=O)(O)OP(=O)(O)OP(=O)(O)O)O2)c(=O)[nH]1 (centres unmarked) [8-oxo-dGTP] | 0.00 |  |  | 0.00 |  |  | 0.00 | 0.00 | 
5 | Cc1cn([C@H]2C[C@H](N=[N+]=[N-])[C@@H](CO[P@](=O)(O)O[P@](=O)(O)OP(=O)(O)O)O2)c(=O)[nH]c1=O [AZT-TP] | 0.00 |  |  | 0.00 |  |  | 0.00 | 0.00 | 
6 | O=c1[nH]cnc2c1ncn2C1CCC(COP(=O)(O)OP(=O)(O)OP(=O)(O)O)O1 (centres unmarked) [ddITP] | 0.00 |  |  | 0.00 |  |  | 0.00 | 0.00 | 
